Reference: patent publication US20030054389A1, “Methods for identifying agents that induce a cellular phenotype, and compositions thereof” (priority 2001, published 2003)

How the values were obtained:
HT29 cells = experiment: Induction of apoptosis in HT29 cells carrying pVT324; format: cell-based, human; conditions: after 48 hours of treatment
Procedure: Cells that are positive for PI uptake may either be necrotic, or be in the late stages of apoptosis. In order to address specifically the question of whether DNA recovered from cells undergoing apoptosis can serve as a good template for PCR, the following experiment was performed. HT29 cells containing a retroviral construct that constitutively expresses GFP (pVT324) were treated with sulindac sulfide to induce apoptosis. […] Apoptotic cells were counted into PCR tubes and PCR was carried out using primers specific for the amplification of the retroviral GFP construct. Live cells from an untreated culture were used as PCR controls. There was no apparent difference in amplification of the GFP product from apoptotic cells when compared to live cells (FIG. 11). Thus DNA recovered from cells undergoing either necrotic or apoptotic cell death can serve as an effective template for PCR amplification and construction of sublibraries.

WM35 cells = experiment: Nuclear condensation / ethidium homodimer and Syto16 staining, WM35; format: cell-based
Procedure: (§1) Two cell lines, WM35 and HS294T, were plated out (50,000 cells per well, 24 well plate) and allowed to adhere. After 24 hours, the cells were treated for 4 hours with varying concentrations (5-80 μM) of Cisplatin (cis-platinum (II) diammine dichloride), a well-known chemotherapeutic agent that induces apoptosis. […] Adherent cell populations were then lifted from the solid support by trypsinization, centrifuged (400× g), and resuspended in PBS (0.125 ml). To observe the nuclear morphology and percent cell death in the WM35 and HS294T cell lines, cells from both floater and adherent populations were stained concurrently with Syto16 and ethidium homodimer (125 ul of cell suspension+2.5 ul 62.5uM Sytol6+[…] 10 ug/ml ethidium homodimer, 10 minutes at 37° C.). Ethidium homodimer is a membrane impermeant compound that fluoresces in the 617 nm range when it is intercalated with chromosomal DNA. Thus, in a mixed cell population containing both living and dead/dying cells, only those cells whose membranes have been compromised will stain with ethidium homodimer. In contrast, Syto 16 (Molecular Probes) is a membrane permeant dye that fluoresces in the 518 nm range when associated with chromosomal DNA. Together, these two dyes can be used to observe and distinguish the nuclear morphology in a population containing both living and dead/dying cells.

HS294T cells = experiment: Nuclear condensation / ethidium homodimer and Syto16 staining, HS294T; format: cell-based
Procedure: as §1

WM35 (melanoma) cells = experiment: Caspase-3 fluorescent substrate (Rhodamine 123-YVAD) and PI staining of WM35 floaters; format: cell-based; conditions: Cisplatin 15 μg/ml, floaters collected 18-24 hours after induction
Procedure: WM35 cells were passed one day prior to induction of apoptosis and incubated for 24 hrs to allow the cells to attach to the substrate. The media was subsequently removed, the remaining adherent cells washed 1× with PBS, and subsequently exposed to Cisplatin (15 μg/ml) in fresh media. Eighteen to twenty-four hours after the induction of apoptosis, the floater cell population was collected, pelleted by centrifugation (400× g), and resuspended at 3×10^6 cells/ml in PBS. Samples were then split into four groups: (I) uninduced minus Rhodamine 123-YVAD (substrate), (2) uninduced plus substrate, (3) induced minus substrate, and (4) induced plus substrate. For samples exposed to Rhodamine 123-YVAD substrate, 50 ul of a pre-warmed (37° C.) cell suspension was combined with 25 ul of a stock substrate solution (Celiprobe). Samples were incubated for 60 minutes at 37° C. and then placed on ice prior to FACS analysis. In addition to caspase-3 staining, a replicate of each sample was stained with propidium iodide to determine the percentage of cells within the population whose membranes had been compromised and the overlap between PI and caspase-3 staining. […] Emission spectra were read at 515-535 nm wavelength using the FLI (PMT2) 525 nm blue filter.

[1] = tested on: ECR293 cells containing pBIGFII and ecdysone receptor (pVgRXR); experiment: Ecdysone-inducible pBIGFII vector fluorescence in ECR293 cells; format: cell-based; conditions: 5 μM ponesterone A
Source text: As an alternative to the constitutive pCLMFG vector, an inducible construct that can be regulated by ecdysone was constructed as follows. The PmlI/XhoI fragment from pVT324 was inserted into the MCS of the PIND vector (Invitrogen). This product was then digested with BglII, blunt-ended and inserted into a pBabe-K-ras vector (pVT313-based) that had been digested with BamHI/XhoI and blunted (Klenow Fragment). The resulting vector was designated pBabe-Forward-1. The XbaI fragment of pVT324 was then inserted into the compatible site of pBabe-Forward-1. The resulting vector was designated pBIGFII. Vector pBIGFII was subsequently transfected into cells (ECR293, Invitrogen) that contain an endogenous copy of the ecdysone receptor (pVgRXR).

HuVEC 9F0293 cells = experiment: Time course of detachment and PI staining of HuVEC 9F0293; format: cell-based, Human; conditions: puromycin 2 ug/ml
Procedure: To determine the time course in which dead and/or dying HuVECs detach from the solid support in response to a cytotoxic agent, 9F0293 cells were plated and subsequently treated with puromycin (2 ug/ml). Both floater and adherent cell populations were then collected at varying times (t=4, 7, 9, 16, 20, and 24 hours) and analyzed to determine (a) the percent PI^+ cells in the floater population and (b) the fraction of cells which became floaters. […] The fraction of floaters that stained with PI (PI^+ population) increased with time.

T47D cells = experiment: Camptothecin kill curve in T47D cells; format: cell-based
Procedure: Approximately 250,000 cells were seeded into each well of a six well plate. Cells were then grown in media containing camptothecin of varying concentrations (0-10 uM). After 5 days, the number of cells remaining in each of the camptothecin-treated wells was compared with untreated controls. From these experiments, it was determined that camptothecin concentrations ranging from 1-4 nM had no effect on T47D cell number over the course of the 5 days of treatment. […] In order to determine whether this level of treatment is concomitantly increasing the number of floaters in the population, several flasks are seeded with T47D cells and then treated with 1-4 nM concentrations of camptothecin. After a period of three to five days, the media is collected and the number of floater cells are counted and compared to the total number of cells in the flask (floaters+adherents).

HMEC 96A cells = experiment: Floater assay with propidium iodide viability, HMEC 96A; format: cell-based, human; conditions: for Propidium Iodide Staining / Percent Floaters: HMEC 96A
Procedure: (§2) A floater assay involving primary human mammary cells (HMECs), immortalized and transformed with a minimum number of genetic elements, was performed as follows. Primary pooled HMECs (Biowhittaker/Clonetics) were immortalized and transformed with two methods: 1) Serial introduction and expression of retroviral constructs encoding SV-40 Lg T Ag, human telomerase catalytic subunit hTERT, and activated V12H-ras (method of Hahn, et al, Nature 400: 464-468, 1999) and 2) serial introduction and expression of constructs encoding HPV-16 E6/E7, hTERT and V12H-ras. The lines are designated 96C and 96A, respectively. The retroviral constructs BABE/neomycin/SV-40 Lg T Ag BABE/LNCX/puromycin/hTERT, LXSN/hygromycin/V-12H-Ras and LXSN/neomycin/HPV-16 E6/E7 were utilized.
(§3) To determine background floater rates, cells were plated to 20% confluency in three 100 mm dishes (100000 cells/dish) and the number of floaters as a percentage of total cells (adherent+floaters) and the viability of floaters ascertained at two, three and four days post-platin . Viability was assessed by measuring propidium iodide uptake. In addition to untreated controls, a transduction control vector pVT 340 (pCLMFG/GFP) and a positive control BID/MFG vector, a pro-apoptotic protein previously identified in a colorectal carcinoma HT29 negative selection, were utilized. Cells were transduced with 30% (v/v) viral supernatants at 95% and 45% rates, respectively.

HMEC 96C cells = experiment: Floater assay with propidium iodide viability, HMEC 96C; format: cell-based, human; conditions: for Propidium Iodide Staining / Percent Floaters: HMEC 96C
Procedure: as §2, §3

Molecule: CSc1ccc(/C=C2/C(C)=C(CC(=O)O)c3cc(F)ccc32)cc1 [sulindac sulfide]
- cell detachment and apoptotic morphology (HT29 cells): the majority of the cells had detached from the dish and showed typical apoptotic morphology

Molecule: N.N.[Cl-].[Cl-].[Pt+2] [Cisplatin, cis-platinum (II) diammine dichloride]
- ethidium homodimer staining of adherent cell population (WM35 cells; WM35 adherent cells, Cisplatin experiment): < 10%
- floater cells stained with ethidium homodimer (WM35 cells; WM35 floaters, Cisplatin treated): 45-50%
- condensed or fragmented nuclei (WM35 cells; WM35 floaters, higher concentrations of Cisplatin): 40-50%
- ethidium homodimer staining of adherent cell population (HS294T cells; HS294T adherent cells, Cisplatin experiment): < 10%
- cells showing condensed or fragmented nuclei (HS294T cells; HS294T floaters stained with ethidium homodimer, Cisplatin treated): < 20%
- floater cells stained with ethidium homodimer (HS294T cells; HS294T floaters, Cisplatin 5-80 μM 4 hours, collected 18-24 hrs later): greater than 50%
- caspase-3 positive cells among PI-minus floater cells (WM35 (melanoma) cells): 94.6%

Molecule: CC(C)CC[C@@H](O)[C@](C)(O)[C@H]1CC[C@@]2(O)C3=CC(=O)[C@@H]4C[C@@H](O)[C@@H](O)C[C@]4(C)[C@H]3CC[C@]12C [ponesterone A]
- increase of fluorescence level versus absence of inducer [1]: increases by approximately thirty fold

Molecule: COc1ccc(C[C@H](N)C(=O)N[C@H]2[C@@H](O)[C@H](n3cnc4c(N(C)C)ncnc43)O[C@@H]2CO)cc1 [puromycin]
- time course of detachment (HuVEC 9F0293 cells): the majority of HuVECs detached by the 16-hour time point
- floater cells in the PI+ gate (HuVEC 9F0293 cells; by 20 hours): nearly all
- cells that became floaters (HuVEC 9F0293 cells; within 24 hours): 90-99%
- PI− versus PI+ floater cells (HuVEC 9F0293 cells; 4, 7, and 9 hours): near equal numbers

Molecule: CC[C@@]1(O)C(=O)OCc2c1cc1n(c2=O)Cc2cc3ccccc3nc2-1 [camptothecin]
- cell number relative to untreated control (T47D cells; 10 nM camptothecin, 5 days): roughly one third that found in the untreated control
- concentration tolerated without adverse effect on cell viability or division (T47D cells; 5 days): up to 4 nM
- concentrations at which virtually no cells remained adhered to the plate (T47D cells; 5 days): greater than 50 nM
- concentrations resulting in a decrease in cell number relative to untreated control (T47D cells; 5 days): greater than 4 nM
- concentrations with no effect on T47D cell number (T47D cells; 5 days of treatment): 1 to 4 nM

B1: BID: positive control BID/MFG vector, a pro-apoptotic protein previously identified in a colorectal carcinoma HT29 negative selection (protein, UniProt P55957 1-195, looked up)
BH3-interacting domain death …: MDCEVNNGSSLRDECITNLLVFGFLQSCSDNSFRRELDALGHELPVLAPQWEGYDELQTDGNRSSHSRLGRIEADSESQEDIIRNIARHLAQVGDSMDRSIPPGLVNGLALQLRNTSRSEEDRNRDLATALEQLLQAYPRDMEKEKTMLVLALLLAKKVASHTPSLLRDVFHTTVNFINQNLRTYVRSLARNGMD
modifications: expressed from MFG retroviral vector
notes: positive control BID/MFG vector, a pro-apoptotic protein previously identified in a colorectal carcinoma HT29 negative selection
- Propidium Iodide Staining (HMEC 96A cells; Adherent, DAY 3): 1.6%
- Propidium Iodide Staining (HMEC 96A cells; Adherent, DAY 4): 0.4%
- Percent Floaters (HMEC 96A cells; DAY 2): 54%
- Percent Floaters (HMEC 96A cells; DAY 3): 25%
- Percent Floaters (HMEC 96A cells; DAY 4): 8%
- Propidium Iodide Staining (HMEC 96A cells; Floaters, DAY 3): 72%
- Propidium Iodide Staining (HMEC 96A cells; Floaters, DAY 4): 45%
- propidium iodide positive in adherents (HMEC 96A cells; line 96A, days 3 and 4): 0.4-1.6%
- propidium iodide positive in floaters (HMEC 96A cells; line 96A, days 3 and 4): 45-75%
- Propidium Iodide Staining (HMEC 96C cells; Adherent, DAY 3): 8.5%
- Propidium Iodide Staining (HMEC 96C cells; Adherent, DAY 4): 0.5%
- Percent Floaters (HMEC 96C cells; DAY 2): 46%
- Percent Floaters (HMEC 96C cells; DAY 3): 58%
- Percent Floaters (HMEC 96C cells; DAY 4): 7%
- Propidium Iodide Staining (HMEC 96C cells; Floaters, DAY 3): 81%
- Propidium Iodide Staining (HMEC 96C cells; Floaters, DAY 4): 70%
- propidium iodide positive (adherents) (HMEC 96C cells; line 96C, days 3 and 4): 0.5-8.5%
- propidium iodide positive in floaters (HMEC 96C cells; line 96C, days 3 and 4): 70-81%
